Source: EP4324461A1, “(E)-N-CINAMOYLAMINOALKANOLES WITH MELANOGENESIS INHIBITORY ACTIVITY” (UNIWERSYTET JAGIELLONSKI, priority 2022, dated 2024)

What was measured:
Keratinocytes (HaCaT) [1] = test: Safety, MTT test in keratinocytes; assay type: cell-based; conditions: 48 hours
Summary of the method: (§1)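 Cells incubated 48 h with compounds at 250–100 µM. MTT viability by absorbance at 570 nm as % of DMSO solvent control. LDH release into medium measured colorimetrically as % of Triton X-100 positive control.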

Keratinocytes (HaCaT) [2] = test: Safety, LDH test in keratinocytes; assay type: cell-based; conditions: 48 hours, positive control Triton X-100
Summary of the method: as §1

Fibroblasts (BJ) [3] = test: Safety, MTT test in fibroblasts; assay type: cell-based; conditions: 48 hours
Summary of the method: (§2)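 48 h compound exposure, 250-100 µM; MTT absorbance 570 nm → % of DMSO vehicle control; LDH activity in medium, colorimetric → % of Triton X-100 control. Human lines BJ, HepG2, SH-SY5Y.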

Fibroblasts (BJ) [4] = test: Safety, LDH test in fibroblasts; assay type: cell-based; conditions: 48 hours, positive control Triton X-100
Summary of the method: as §2

Primary melanocytes = test: Safety, MTT test in primary melanocytes; assay type: cell-based; conditions: 48 hours
Hepatocarcinoma HepG2 [5] = test: Safety, MTT test in HepG2; assay type: cell-based; conditions: 48 hours
Hepatocarcinoma HepG2 [6] = test: Safety, LDH test in HepG2; assay type: cell-based; conditions: 48 hours, positive control Triton X-100
neuroblastoma SH-SY5Y [7] = test: Safety, MTT test in SH-SY5Y; assay type: cell-based; conditions: 48 hours
neuroblastoma SH-SY5Y [8] = test: Safety, LDH test in SH-SY5Y; assay type: cell-based; conditions: 48 hours, positive control Triton X-100
Summary of the method: as §2

S. typhimurium TA98 = test: Ames microplate test, TA98; assay type: cell-based, Salmonella typhimurium; conditions: without S9;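 also: reference level is the mean solvent-control yellow wells plus SD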
Protocol: (§3) Bacteria were grown overnight in growth medium.
(§4) Table 9. Ames microplate test results.

S. typhimurium TA100 = test: Ames microplate test, TA100; assay type: cell-based, Salmonella typhimurium; conditions: without S9;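 also: reference level is the mean solvent-control yellow wells plus SD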
Protocol: as §3, §4

S. typhimurium TA1537 = test: Ames microplate test, TA1537; assay type: cell-based, Salmonella typhimurium; conditions: without S9;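 also: reference level is the mean solvent-control yellow wells plus SD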
Protocol: as §3, §4

[9] = tested on: Chinese hamster ovary cell line (CHO-K1); test: Cytotoxicity in CHO-K1 cells (MTT) before the micronucleus test; assay type: cell-based; conditions: 24 hours
Summary of the method: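 CHO-K1 cells in F-12K with 10% FBS, 37 °C, 5% CO2, exposed to compounds for 24 hours. Viability by MTT, relative to DMSO vehicle at matching concentration; used to pick safe concentrations for the micronucleus test.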

E. coli WP2 = test: Ames microplate test, E. coli WP2; conditions: without S9;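 also: bacteria treated 90 min at 37 °C in 24-well plates, then indicator medium dispensed to 384-well plates and incubated 48 h before yellow-well counting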
Protocol: The study used the Ames microplate test (Ames MPF™ Penta 2 by Xenometrix, Allschwil, Switzerland). Growth medium, exposure medium, indicator medium, positive controls, hepatic microsomal fraction, NADP, glucose-6-phosphate, Salmonella typhimurium and Escherichia coli strains were components of the purchased experimental kit. Bacteria were grown overnight in growth medium. They were then exposed to the test compound at the appropriate concentration in exposure medium without or with the rat microsomal fraction S9 in 24-well plates for 90 min at 37 °C with shaking. Then, indicator medium was added to the wells and pipetted into 384-well plates, which were incubated for 48 hours at 37 °C without shaking. Results were assessed by counting the wells in which the medium turned yellow for each experimental condition.

Cc1ccc(/C=C/C(=O)NCCCCCO)cc1 [H-415/21, (2E)-N-(5-hydroxypentyl)-3-(4-methylphenyl)prop-2-enamide]
Keratinocytes (HaCaT) MTT (Keratinocytes (HaCaT) [1]; 100 µM): 101.11±2.03 % of solvent control
Keratinocytes (HaCaT) MTT (Keratinocytes (HaCaT) [1]; 150 µM): 101.78±2.32 % of solvent control
Keratinocytes (HaCaT) MTT (Keratinocytes (HaCaT) [1]; 200 µM): 100.88±1.40 % of solvent control
Keratinocytes (HaCaT) MTT (Keratinocytes (HaCaT) [1]; 250 µM): 88.54±3.74 % of solvent control
Keratinocytes (HaCaT) LDH (Keratinocytes (HaCaT) [2]; 100 µM): 2.95 percentage of positive control
Keratinocytes (HaCaT) LDH (Keratinocytes (HaCaT) [2]; 150 µM): 6.70 percentage of positive control
Keratinocytes (HaCaT) LDH (Keratinocytes (HaCaT) [2]; 200 µM): 10.18 percentage of positive control
Keratinocytes (HaCaT) LDH (Keratinocytes (HaCaT) [2]; 250 µM): 18.19 percentage of positive control
Fibroblasts (BJ) MTT (Fibroblasts (BJ) [3]; 100 µM): 102.12±2.71 % of solvent control
Fibroblasts (BJ) MTT (Fibroblasts (BJ) [3]; 150 µM): 101.92±2.88 % of solvent control
Fibroblasts (BJ) MTT (Fibroblasts (BJ) [3]; 200 µM): 96.13±3.64 % of solvent control
Fibroblasts (BJ) MTT (Fibroblasts (BJ) [3]; 250 µM): 92.86±4.30 % of solvent control
Fibroblasts (BJ) LDH (Fibroblasts (BJ) [4]; 100 µM): 8.81 percentage of positive control
Fibroblasts (BJ) LDH (Fibroblasts (BJ) [4]; 150 µM): 8.75 percentage of positive control
Fibroblasts (BJ) LDH (Fibroblasts (BJ) [4]; 200 µM): 9.82 percentage of positive control
Fibroblasts (BJ) LDH (Fibroblasts (BJ) [4]; 250 µM): 16.63 percentage of positive control
Primary melanocytes MTT (Primary melanocytes; 100 µM): 103.27±1.88 % of solvent control
Primary melanocytes MTT (Primary melanocytes; 150 µM): 99.89±2.43 % of solvent control
Primary melanocytes MTT (Primary melanocytes; 200 µM): 94.81±2.92 % of solvent control
Primary melanocytes MTT (Primary melanocytes; 250 µM): 87.64±1.44 % of solvent control
Hepatocarcinoma HepG2 MTT (Hepatocarcinoma HepG2 [5]; 100 µM): 100.32±1.75 % of solvent control
Hepatocarcinoma HepG2 MTT (Hepatocarcinoma HepG2 [5]; 150 µM): 99.54±5.74 % of solvent control
Hepatocarcinoma HepG2 MTT (Hepatocarcinoma HepG2 [5]; 200 µM): 100.53±3.98 % of solvent control
Hepatocarcinoma HepG2 MTT (Hepatocarcinoma HepG2 [5]; 250 µM): 98.90±4.21 % of solvent control
Hepatocarcinoma HepG2 LDH (Hepatocarcinoma HepG2 [6]; 100 µM): 3.90 percentage of positive control
Hepatocarcinoma HepG2 LDH (Hepatocarcinoma HepG2 [6]; 150 µM): 7.24 percentage of positive control
Hepatocarcinoma HepG2 LDH (Hepatocarcinoma HepG2 [6]; 200 µM): 8.92 percentage of positive control
Hepatocarcinoma HepG2 LDH (Hepatocarcinoma HepG2 [6]; 250 µM): 15.47 percentage of positive control
Neuroblastoma SH-SYSY MTT (neuroblastoma SH-SY5Y [7]; 100 µM): 100.68±4.63 % of solvent control
Neuroblastoma SH-SYSY MTT (neuroblastoma SH-SY5Y [7]; 150 µM): 99.32±2.96 % of solvent control
Neuroblastoma SH-SYSY MTT (neuroblastoma SH-SY5Y [7]; 200 µM): 100.27±3.50 % of solvent control
Neuroblastoma SH-SYSY MTT (neuroblastoma SH-SY5Y [7]; 250 µM): 101.71±2.38 % of solvent control
Neuroblastoma SH-SYSY LDH (neuroblastoma SH-SY5Y [8]; 100 µM): 3.90 percentage of positive control
Neuroblastoma SH-SYSY LDH (neuroblastoma SH-SY5Y [8]; 150 µM): 7.24 percentage of positive control
Neuroblastoma SH-SYSY LDH (neuroblastoma SH-SY5Y [8]; 200 µM): 8.92 percentage of positive control
Neuroblastoma SH-SYSY LDH (neuroblastoma SH-SY5Y [8]; 250 µM): 10.55 percentage of positive control
Increase in the number of yellow wells compared to the reference level (S. typhimurium TA98; 0.5 mM): 0.47
Increase in the number of yellow wells compared to the reference level (S. typhimurium TA98; 1.0 mM): 0.24
Increase in the number of yellow wells compared to the reference level (S. typhimurium TA98; 2.0 mM): 0.35
Increase in the number of yellow wells compared to the reference level (S. typhimurium TA100; 0.5 mM): 0.92
Increase in the number of yellow wells compared to the reference level (S. typhimurium TA100; 1.0 mM): 0.58
Increase in the number of yellow wells compared to the reference level (S. typhimurium TA100; 2.0 mM): 0.75
Increase in the number of yellow wells compared to the reference level (S. typhimurium TA1537; 0.5 mM): 0.33
Increase in the number of yellow wells compared to the reference level (S. typhimurium TA1537; 1.0 mM): 0.33
Increase in the number of yellow wells compared to the reference level (S. typhimurium TA1537; 2.0 mM): 0.00
% Viability [mean] ([9]; 100 µM): 102.2%
% Viability [mean] ([9]; 150 µM): 102.8%
% Viability [mean] ([9]; 200 µM): 87.2%
Increase in the number of yellow wells compared to the reference level (E. coli WP2; 0.5 mM): 0.64
Increase in the number of yellow wells compared to the reference level (E. coli WP2; 1.0 mM): 0.40
Increase in the number of yellow wells compared to the reference level (E. coli WP2; 2.0 mM): 0.95
